Legend:
[1] = target: Glutamate receptors; NMDA/AMPA (Rattus norvegicus) (UniProt P35439+Q00959+Q00960+Q00961+Q62645+Q8VHN2+Q9R1M7+P19491+P19492+P19493+P19490); test: Depolarizing activity relative to that of L-Glutamate (L-Glu=1) tested against mixed type(NMDA & AMPA) receptor in the newborn rat spinal motoneurone; type: protein-complex assay
[2] = target: Glutamate NMDA receptor (Rattus norvegicus) (UniProt P35439+Q00959+Q00960+Q00961+Q62645+Q8VHN2+Q9R1M7); test: Depolarizing activity relative to that of L-Glutamate (L-Glu=1) tested against NMDA type receptor in the newborn rat spinal motoneurone; type: protein-complex assay

Relative Potency Ratio [1] | Relative Potency Ratio [2] | SMILES
5 |  | O=C(O)[C@@H]1CCN[C@H]1C(=O)O
 | 20 | O=C(O)[C@H]1CCCN[C@@H]1C(=O)O (racemic)
 | 50 | CN[C@H](CC(=O)O)C(=O)O
 | 3 | O=C(O)[C@H]1CCN[C@H]1C(=O)O
 | 10 | O=C(O)[C@H]1NCCC[C@H]1C(=O)O
 | 0.1 | O=C(O)[C@H]1NCC[C@H]1C(=O)O
